{
  "source": "patent US10183015B2",
  "about": "“Heterocyclic compounds and methods of use” (Medivation Technologies LLC, priority 2015, dated 2019)",
  "assay_type_in_all_cases": "in vivo",
  "key": {"[1]": {"test_system": "diet-induced NASH obese insulin resistant mice", "assay": "DIN mouse model: liver Sirius Red staining (% labeling, collagen deposition)", "conditions": "for Sirius red labeling: liver", "protocol": "(§1) Male C57Bl/6J mice (8 weeks old) were housed in enriched ventilated cages (31×12.5×12.7 cm) throughout the experimental phase. Animals' cages litters were changed at least once a week. Animal were housed 5 per cage on inverted 12-hour light cycle (at 09:00 am lights off), 22±2° C. and 55±10% relative humidity. The acclimation period was 20 days. During the acclimation period, all mice were fed a standard diet (RM1 (E) 801492, SDS) and tap water ad libitum. After the acclimation period, mice were fed with the DIN diet (60% fat, cholesterol enriched) and fructose-enriched tap water ad libitum until the end of the experiment.\n(§2) At 6 weeks of diet, mice were 4-hour fasted (09:00 am to 1:00 pm) and blood (150 μl/EDTA) was collected at 01:00 pm by retro-orbital bleeding under isoflurane anesthesia. Mice were then allocated in 2 homogenous groups (n=12/group) according to their plasma levels of ALT (average levels: 685U/L), AST (average levels: 627U/L) and HOMA-IR index (average value: 4.7), into 2 homogenous groups (see values at day 0 in Tables 15A and 15B ALT/AST and Tables 16A and 16B for HOMA-IR). Mice were then treated once daily by oral gavage with vehicle (Group 1) or Compound #37 at 20 mg/kg (Group 2) for 70 days.\nSlides having a single hepatic lobe section stained with H&E and […] were digitized using a Nanozoomer from Hamamatsu. Sections were evaluated with knowledge of groups. In agreement with the unchanged hepatic triglycerides levels, oil red O staining and % labeling was not changed with Compound #37. A substantial reduction in Sirius Red labeling was also observed, leading to a 61% reduction (p<0.001 vs. vehicle) in % labeling.\n(§3) To investigate whether Compound #37 improves pre-existing steatosis/NASH pathology, a study was conducted using a 16-week diet-induced NASH mouse model. In this model, mice develop steatosis that progresses with inflammation and fibrosis that mimic many of the observed pathologies in human nonalcoholic fatty liver disease (NAFLD) and NASH (Hebbard & George, 2010). […]"}, "SREBP1C": {"test_system": "SREBP1C", "assay": "Short-term Paigen-diet NASH mouse model: hepatic SREBP1C gene expression (RT-qPCR)", "conditions": "liver, 21 days; for DDct: SREBP1C Dct relative to vehicle mean; for Dct: SREBP1C minus 18S; for 2DDct: SREBP1C relative expression to vehicle group, normalized to 18S; for SREBP1C: raw RT-qPCR value", "protocol": "(§4) To investigate whether Compound #37 prevents the development of pathology associated with NASH and steatosis in an acute exploratory disease model, a study was conducted using a diet-induced acute liver steatosis model in mice. As described below, in this study, C57BL/6J mice were initiated on the Paigen diet and simultaneously treated with Compound #37 (5, 20, and 40 mg/kg/day) or vehicle control (20% HPβCD 10 mL/kg/day) by oral gavage for 21 days.\n(§5) After acclimation, 8-week old male C57Bl/6J mice (Charles River) weighing about 25 g were randomized in 4 groups according their body weight and treated once daily around noon by oral gavage with vehicle, or Compound #37 at various for 21 days as follows: Group 1: vehicle-20% (2-hydroxypropyl)-β-cyclodextrin (HP-β-CD) (n=10); Group 2: Compound #37, 5 mg/kg (n=10) Group 3: Compound #37, 20 mg/kg (n=10) Group 4: Compound #37, 40 mg/kg (n=10). During the treatment period, body weight and food intake (measured over 24h) were measured 3 times per week and once a week, respectively. During the acclimation, all mice were fed a standard diet (Special Diets Services RM1 (E), product no. 801492) and tap water ad libitum. After the acclimation period, mice were fed until the end of the experiment with a 60% high fat Paigen diet (60 kcal % fat, 1.25% cholesterol, and 0.5% cholate; D11061901, Research Diet) and tap water ad libitum.\n(§6) Gene expression analysis. Hepatic expression levels of genes involved in lipid metabolism (FAS, SREBP1, ACC1, SCD1), cholesterol metabolism (HMG-CoAR, LDLR), SREBP proteolysis (SCAP, INSIG1), ER stress (PERK), oxidative stress (NRF2), inflammation (MCP-1), and fibrosis (collagen 1α1) were quantified by RTqPCR. Expression level was normalized to 18S gene expression and relative expression to vehicle group was calculated with the […] method."}, "leptin": {"test_system": "leptin", "assay": "DIN mouse model: plasma leptin", "conditions": "for plasma leptin day 70: day 70, 20 mg/kg", "protocol": "as §1, §2\nas §3, with “2010). For 6 weeks, mice were fed a high-fat, high-cholesterol diet and provided drinking water containing fructose to induce liver pathology (Charlton et al, 2011).” for “2010).”"}, "LDLR": {"test_system": "LDLR", "assay": "Short-term Paigen-diet NASH mouse model: hepatic LDLR gene expression (RT-qPCR)", "conditions": "liver; for DDct: LDLR Dct relative to vehicle mean; for Dct: LDLR minus 18S; for 2DDct: LDLR relative expression to vehicle group, normalized to 18S; for LDLR: raw RT-qPCR value", "protocol": "as §4, §5, §6"}, "[2]": {"conditions": "Compound #37 5 mg/kg, group mean, n=10"}, "[3]": {"conditions": "Compound #37 5 mg/kg, individual animals, 5 mg/kg"}, "[4]": {"conditions": "Compound #37 20 mg/kg, group mean, n=6"}, "[5]": {"conditions": "Compound #37 20 mg/kg, individual animals, 20 mg/kg"}},
  "note": "Where “and” joins values, the source holds several entries; their conditions need not be identical. Equal values may be shown once.",
  "data": [
    {"smiles": "CC(C)Cc1cc(-c2nc(-c3ccc(NS(=O)(=O)C(F)(F)F)cc3Cl)cs2)ccn1", "note": "[Compound 37, N-(3-chloro-4-(2-(2-isobutylpyridin-4-yl)thiazol-4-yl)phenyl)-1,1,1-trifluoromethanesulfonamide]", "values": [
      {"measurement": "Sirius Red % labeling reduction", "setting": "[1]; 20 mg/kg, 70 days, p<0.001 vs. vehicle", "result": 61, "unit": "%"},
      {"measurement": "Sirius red labeling", "setting": "[1]; 20 mg/kg group, mean, n 11", "result": 0.7, "unit": "%"},
      {"measurement": "Sirius red labeling", "setting": "[1]; 20 mg/kg, individual animals", "result": "0.5% and 0.8% (4×) and 0.6% (2×) and 1.0% and 0.9% and 0.7% (2×)"},
      {"measurement": "DDct", "setting": "SREBP1C; [2]", "result": 0.26},
      {"measurement": "DDct", "setting": "SREBP1C; [3]", "result": "−0.21 and 0.9 and 0.06 and −0.98 and 1.46 and 1.52 and −0.09 and −0.27 and 0.17 and 0.02"},
      {"measurement": "DDct", "setting": "SREBP1C; [4]", "result": "−0.13"},
      {"measurement": "DDct", "setting": "SREBP1C; [5]", "result": "0.5 and 0.38 and 0.11 and −1.36 and 0.66 and −1.08"},
      {"measurement": "Dct", "setting": "SREBP1C; [2]", "result": 14},
      {"measurement": "Dct", "setting": "SREBP1C; [3]", "result": "13.57 and 14.68 and 13.84 and 12.8 and 15.24 and 15.3 and 13.69 and 13.51 and 13.95 and 13.8"},
      {"measurement": "Dct", "setting": "SREBP1C; [4]", "result": 13.6},
      {"measurement": "Dct", "setting": "SREBP1C; [5]", "result": "14.28 and 14.16 and 13.89 and 12.42 and 14.44 and 12.7"},
      {"measurement": "2DDct", "setting": "SREBP1C; [2]", "result": 0.95},
      {"measurement": "2DDct", "setting": "SREBP1C; [3]", "result": "1.16 and 0.54 and 0.96 and 1.98 and 0.36 and 0.35 and 1.07 and 1.21 and 0.89 and 0.99"},
      {"measurement": "2DDct", "setting": "SREBP1C; [4]", "result": 1.29},
      {"measurement": "2DDct", "setting": "SREBP1C; [5]", "result": "0.71 and 0.77 and 0.93 and 2.57 and 0.63 and 2.12"},
      {"measurement": "SREBP1C", "setting": "SREBP1C; [2]", "result": 26.3},
      {"measurement": "SREBP1C", "setting": "SREBP1C; [3]", "result": "27.03 and 27.79 and 25.45 and 26.15 and 27.27 and 28.65 and 25.29 and 25.3 and 25.09 and 24.92"},
      {"measurement": "SREBP1C", "setting": "SREBP1C; [4]", "result": 25.8},
      {"measurement": "SREBP1C", "setting": "SREBP1C; [5]", "result": "27.19 and 26.45 and 26.09 and 25.45 and 25.93 and 23.96"},
      {"measurement": "plasma leptin reduction", "setting": "leptin; 20 mg/kg, end of the treatment period, vs. vehicle", "result": 38, "unit": "%"},
      {"measurement": "plasma leptin day 70", "setting": "leptin; group mean, n 11", "result": 265, "unit": "pg/mL"},
      {"measurement": "plasma leptin day 70", "setting": "leptin; individual animals", "result": "454 pg/mL and 330 pg/mL and 202 pg/mL and 280 pg/mL and 341 pg/mL and 144 pg/mL and 294 pg/mL and 46 pg/mL and 269 pg/mL and 374 pg/mL and 187 pg/mL"},
      {"measurement": "DDct", "setting": "LDLR; [2]", "result": 0.18},
      {"measurement": "DDct", "setting": "LDLR; [3]", "result": "−0.92 and 0.13 and −0.60 and −0.98 and 1.46 and 1.39 and 0.04 and 0.33 and 0.52 and 0.37"},
      {"measurement": "DDct", "setting": "LDLR; [4]", "result": "−0.09"},
      {"measurement": "DDct", "setting": "LDLR; [5]", "result": "0.38 and 0.91 and 0.32 and −1.22 and 0.42 and −1.37"},
      {"measurement": "Dct", "setting": "LDLR; [2]", "result": 12.8},
      {"measurement": "Dct", "setting": "LDLR; [3]", "result": "11.74 and 12.79 and 12.06 and 11.68 and 14.12 and 14.05 and 12.7 and 12.99 and 13.18 and 13.03"},
      {"measurement": "Dct", "setting": "LDLR; [4]", "result": 12.6},
      {"measurement": "Dct", "setting": "LDLR; [5]", "result": "13.04 and 13.57 and 12.98 and 11.44 and 13.08 and 11.29"},
      {"measurement": "2DDct", "setting": "LDLR; [2]", "result": 1.03},
      {"measurement": "2DDct", "setting": "LDLR; [3]", "result": "1.89 and 0.91 and 1.51 and 1.97 and 0.36 and 0.38 and 0.97 and 0.79 and 0.70 and 0.77"},
      {"measurement": "2DDct", "setting": "LDLR; [4]", "result": 1.29},
      {"measurement": "2DDct", "setting": "LDLR; [5]", "result": "0.77 and 0.53 and 0.80 and 2.33 and 0.75 and 2.58"},
      {"measurement": "LDLR", "setting": "LDLR; [2]", "result": 25.1},
      {"measurement": "LDLR", "setting": "LDLR; [3]", "result": "25.2 and 25.9 and 23.67 and 25.03 and 26.15 and 27.4 and 24.3 and 24.78 and 24.32 and 24.15"},
      {"measurement": "LDLR", "setting": "LDLR; [4]", "result": 24.8},
      {"measurement": "LDLR", "setting": "LDLR; [5]", "result": "25.95 and 25.86 and 25.18 and 24.47 and 24.57 and 22.55"}
    ]}
  ]
}
